Read-outs that look alike come from different tables or passages of the source.
What was measured:
KB-3-1 = experiment: Cell survival assay (SRB), KB-3-1; assay type: cell-based, human; conditions: Homo sapiens
Procedure, shortened: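 Cells were exposed to serially diluted compound in duplicate for 3 days. Survival was read as protein content by SRB (TCA fixation 1 hr at 4 °C, 0.04% SRB stain, dissolved in 10 mM Tris, absorbance). KB-3-1 was grown in 20% FCS. IC50 is the concentration giving 50% growth inhibition.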

KB-8-5 (MDR1+) = experiment: Cell survival assay (SRB), KB-8-5 (MDR1+); conditions: for IC50: Homo sapiens, MDR1, read-out: In vitro IC50 (nM) KB85
KB-V1 (MDR1++) = experiment: Cell survival assay (SRB), KB-V1 (MDR1++); conditions: for IC50: Homo sapiens
[1] = KB 3-1, KB-3-1 cells (paclitaxel-sensitive parent), read-out: In vitro IC50 (nM) KB-3-1
[2] = read-out: In vitro IC50 (nM) KBV1

| SMILES | IC50 (KB-3-1; [1]) [nM] | Ratio KB85/KB (KB-8-5 (MDR1+)) | IC50 (KB-8-5 (MDR1+)) [nM] | Ratio KBV1/KB (KB-V1 (MDR1++)) | IC50 (KB-V1 (MDR1++); [2]) [nM] | IC50 (KB-V1 (MDR1++); read-out: In vitro IC50 KBV1) [nM] | IC50 (KB-3-1; KB 3-1, read-out: In vitro IC50 (nM) KB-3-1) [nM] |
| --- | --- | --- | --- | --- | --- | --- | --- |
| CNC(C(=O)NC(C)C(=O)N(C)C(C=C(C)C(=O)O)C(C)C)C(C)(C)c1ccccc1.O=C(O)C(F)(F)F (centres unmarked) [Example 103, 2,5-dimethyl-4-{methyl-[2-(3-methyl-2-methylamino-3-phenyl-butyrylamino)-propionyl]-amino}-hex-2-enoic Acid Trifluoroacetic Acid] | 170 | 13.3 | 2260 | 15.3 | 2610 |  |  |
| CNC(C(=O)NC(C(=O)N(C)C(C=C(C)C(=O)O)CC(C)C)C(C)(C)C)C(C)(C)c1ccccc1.O=C(O)C(F)(F)F (centres unmarked) [Example 104, 4-{[3,3-Dimethyl-2-(3-methyl-2-methylamino-3-phenyl-butyrylamino)-butyryl]-methyl-amino}-2,6-dimethyl-hept-2-enoic Acid Trifluoroacetic Acid] | 27.7 | 1.8 | 50.5 | 79.3 | 2200 |  |  |
| CN[C@H](C(=O)N[C@H](C(=O)N(C)[C@H](/C=C(\C)C(N)=O)C(C)C)C(C)(C)C)C(C)(C)c1ccccc1 [Example 107, (E,4S)-4-[((2S)-3,3-dimethyl-2-{[(2S)-3-methyl-2-(methylamino)-3-phenylbutanoyI]amino}butanoyl)(methyl)amino]-2,5-dimethyl-2-hexenamide] | 64.7 | 2.5 | 162 | 46.4 | ≥ 3000 |  |  |
| CNC(=O)/C(C)=C/[C@H](C(C)C)N(C)C(=O)[C@@H](NC(=O)[C@@H](NC)C(C)(C)c1ccccc1)C(C)(C)C [Example 108, (E,4S)-4-[((2S)-3,3-dimethyl-2-{[(2S)-3-methyl-2-(methylamino)-3-phenylbutanoyl]amino}butanoyl)(methyl)amino]-N,2,5-trimethyl-2-hexenamide] | 68.3 | 1.9 | 129 | 23.3 | 1590 |  |  |
| CN[C@H](C(=O)N[C@H](C(=O)N(C)[C@H](/C=C(\C)C(=O)NCCC#N)C(C)C)C(C)(C)C)C(C)(C)c1ccccc1 [Example 109, N,β,β-trimethyl-L-phenylalanyl-N^1-{(1S,2E)-4-[(2-cyanoethyl)amino]-1-isopropyl-3-methyl-4-oxo-2-butenyl}-N^1,3-dimethyl-L-valinamide] | 129 | 3.4 | 435 | 23.3 | ≥ 3000 |  |  |
| CN[C@H](C(=O)N[C@H](C(=O)N(C)[C@H](/C=C(\C)C(=O)Nc1ccc(N=[N+]=[N-])cc1)C(C)C)C(C)(C)C)C(C)(C)c1ccccc1 [Example 111, N,β,β-trimethyl-L-phenylalanyl-N^1-{(1S,2E)-4-[(4-azidophenyl)amino]-1-isopropyl-3-methyl-4-oxo-2-butenyl}-N^1,3-dimethyl-L-valinamide] | 178 | 2.9 | 513 | 12.6 | 2240 |  |  |
| CN[C@H](C(=O)N[C@H](C(=O)N(C)[C@H](/C=C(\C)C(=O)NCCc1ccccc1)C(C)C)C(C)(C)C)C(C)(C)c1ccccc1 [Example 112, N,β,β-trimethyl-L-phenylalanyl-N^1-{(1S,2E)-1-isopropyl-3-methyl4-oxo4-[(2-phenylethyl)amino]but-2-enyl}-N^1,3-dimethyl-L-valinamide] | 163 | 1.4 | 226 | 10.8 | 1770 |  |  |
| CCOC(=O)/C(C)=C/[C@H](C(C)C)N(C)C(=O)/C(C)=C/[C@H](C(C)C)N(C)C(=O)[C@@H](NC(=O)[C@@H](NC)C(C)(C)c1ccccc1)C(C)(C)C [Example 113, N,β,β-trimethyl-L-phenylalanyl-N^1-{(1S,2E)-4-[[(1S,2E)-4-ethoxy-1-isopropyl-3-methyl-4-oxobut-2-enyl](methyl)amino]-1-isopropyl-3-methyl-4-oxobut-2-enyl}-N^1,3-dimethyl-L-valinamide] | 18 | 1.9 | 34 | 32.3 | 582 |  |  |
| CN[C@H](C(=O)N[C@H](C(=O)N(C)[C@H](/C=C(\C)C(=O)OCc1cccs1)C(C)C)C(C)(C)C)C(C)(C)c1ccccc1 [Example 115, N,β,β-trimethyl-L-phenylalanyl-N^1-[(1S,2E)-1-isopropyl-3-methyl-4-oxo-4-(thien-2-ylmethoxy)but-2-enyl]-N^1,3-dimethyl-L-valinamide] | 5 | 46.2 | 231 |  |  | > 3000 |  |
| CCCCCCCCOC(=O)/C(C)=C/[C@H](C(C)C)N(C)C(=O)[C@@H](NC(=O)[C@@H](NC)C(C)(C)c1ccccc1)C(C)(C)C [Example 116, N,β,β-trimethyl-L-phenylalanyl-N^1-[(1S,2E)-1-isopropyl-3-methyl-4-(octyloxy)-4-oxobut-2-enyl]-N^1,3-dimethyl-L-valinamide] | 150 | 10.9 | 1630 |  |  | > 3000 |  |
| CN[C@H](C(=O)N[C@H](C(=O)N(C)[C@H](/C=C(/C)C(=O)O)C(C)C)C(C)(C)C)C(C)(C)c1ccccc1 [Example 117, N,β,β-trimethyl-L-phenylalanyl-N^1-[(1S,2Z)-3-carboxy-1-isopropyl-2-butenyl]-N^1,3-dimethyl-L-valinamide] |  | 2.1 | 58 | 93.9 | 2630 |  | 28 |
| CN[C@H](C(=O)N[C@H](C(=O)N(C)[C@H](/C=C/C(=O)O)C(C)C)C(C)(C)C)C(C)(C)c1ccccc1 [Example 118, N,β,β-trimethyl-L-phenylalanyl-N^1-[(1S,2E)-3-carboxy-1-isopropylprop-2-enyl]-N^1,3-dimethyl-L-valinamide] | 190 | 2.5 | 479 | 15.7 | ≥ 3000 |  |  |
| C=CC[C@@H](/C=C(\C)C(=O)O)N(C)C(=O)[C@@H](NC(=O)[C@@H](NC)C(C)(C)c1ccccc1)C(C)(C)C [Example 119, N,β,β-trimethyl-L-phenylalanyl-N^1-[(1S,2E)-1-allyl-3-carboxybut-2-enyl]-N^1,3-dimethyl-L-valinamide] | 55 | 3.0 | 164 |  |  | > 3000 |  |
| C=CC(C)(C)[C@H](NC)C(=O)N[C@H](C(=O)N(C)[C@H](/C=C(\C)C(=O)O)C(C)C)C(C)(C)C [Example 121, (2E, 4S)-4-[((2S)-2-{[3,3-dimethyl-2-(methylamino)-4-pentenoyl]amino}-3,3-dimethylbutanoyl)(methyl)amino]-2,5-dimethyl-2-hexenoic Acid] | 136 | 1.4 | 186 | 22.0 | ≥ 3000 |  |  |
| CN[C@H](C(=O)N[C@H](C(=O)N(C)[C@H](C[C@H](C)C(=O)O)C(C)C)C(C)(C)C)C(C)(C)c1ccccc1 [Example 123, N,β,β-trimethyl-L-phenylalanyl-N^1-[(1R,3S)-3-carboxy-1-isopropylbutyl]-N^1,3-dimethyl-L-valinamide] | 891 | 0.6 | 537 |  |  | > 3000 |  |

From patent publication US20040121965A1, “Method of treating resistant tumors” (Wyeth Holdings Corporation, priority 2002, published 2004)
